The results in this text go back to ChEMBL document CHEMBL1131036, “Structure-based design, synthesis, and biological evaluation of irreversible human rhinovirus 3C protease inhibitors. 1. Michael acceptor structure-activity studies” (J Med Chem, 1998).

Data set [1] deals with T1, Human rhinovirus A protease (Human rhinovirus sp.) (UniProt Q4U254).
T1 sequence (whole entry): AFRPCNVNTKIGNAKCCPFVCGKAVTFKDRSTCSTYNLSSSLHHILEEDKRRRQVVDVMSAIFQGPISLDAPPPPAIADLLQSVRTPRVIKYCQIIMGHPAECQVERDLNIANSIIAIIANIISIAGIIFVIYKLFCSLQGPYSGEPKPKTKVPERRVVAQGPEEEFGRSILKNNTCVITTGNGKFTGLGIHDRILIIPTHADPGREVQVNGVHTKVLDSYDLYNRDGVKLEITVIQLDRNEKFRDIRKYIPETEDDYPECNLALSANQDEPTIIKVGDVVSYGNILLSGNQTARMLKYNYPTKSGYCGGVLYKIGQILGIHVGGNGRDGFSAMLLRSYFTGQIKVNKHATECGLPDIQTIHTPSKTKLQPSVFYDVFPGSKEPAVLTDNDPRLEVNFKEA
Put plainly: Catalytic rate constant (Kobs/[I]) was evaluated against human rhinovirus (HRV) serotype 2 3C Protease (3CP).

For data set [2], the target named is T1, Human rhinovirus A protease (Human rhinovirus sp.). Put plainly: Catalytic rate constant (Kobs/[I]) was evaluated against human rhinovirus (HRV) serotype 16 3C Protease (3CP).
The test system of data set [3] is HeLa. Put plainly: Concentration of compound that decreased the percentage of formazan production in treated HRV-14 virus infected cells to that produced in uninfected cells. The class given is functional. Conditions: Homo sapiens.
Data set [4] concerns the target T1, Human rhinovirus A protease (Human rhinovirus sp.). Put plainly: Catalytic rate constant (Kobs/[I]) evaluated against human rhinovirus (HRV) serotype 14 3C Protease (3CP). The settings on record: Human rhinovirus B (HRV-14).
The subject of data set [5] is HeLa. Put plainly: Formazan production in HRV-14 virus infected cells. It counts as functional, cell-based. The settings on record: Homo sapiens.
Data set [6] has as its system Human rhinovirus sp. Put plainly: Inhibitory activity of compound towards partial or complete loss of 3C protease (HRV-14) activity in presence of 5 mM dithiothreitol (DTT); No inhibition. The class given is functional, organism-based.
For data set [7], the system named is Human rhinovirus sp. Put plainly: Inhibitory activity of compound towards partial or complete loss of 3C protease (HRV-14) activity in presence of 5 mM dithiothreitol (DTT); inhibition observed. The class given is functional, organism-based.
Data set [8] concerns HeLa. Put plainly: Concentration of compound that increased the percentage of formazan production in HRV-2 virus infected cells to that of untreated control cells. The class given is functional, cell-based. Conditions: Homo sapiens.
Data set [9] can be described thus: Half-life in rat plasma. The class given is ADME, organism-based.
For data set [10], the system named is HeLa. Put plainly: Concentration of compound that increased the percentage of formazan production in HRV-16 virus infected cells to that of untreated control cells. It counts as functional, cell-based. The settings on record: Homo sapiens.

Structures are written as SMILES. Calls of active or inactive are those of the source.

With `CC(=O)/C=C/[C@H](CCC(N)=O)NC(=O)[C@H](Cc1ccccc1)NC(=O)[C@H](CC(C)C)NC(=O)OCc1ccccc1`, the K obs / 1 in [1] was found to be 2700 M⁻¹ s⁻¹; in data set [2], 8900 M⁻¹ s⁻¹; in data set [4] it was 54000 M⁻¹ s⁻¹. The compound further came in with a CC50 in the data set with HeLa [3] of 60 µM. It took 2 µM to reach a half-maximal effect in the data set on HeLa [5] (EC50).

Regarding `CC(C)C[C@H](NC(=O)OCc1ccccc1)C(=O)N[C@@H](Cc1ccccc1)C(=O)N[C@H](/C=C/C(=O)N1CCc2ccc([N+](=O)[O-])cc21)CCC(N)=O`, the CC50 in the data set with HeLa [3] was above 320 µM. The K obs / 1 in data set [4] came out at 29000 M⁻¹ s⁻¹. In addition, in the data set on Human rhinovirus sp. [6], the inhibition entry is “inactive”. The compound also yielded an EC50 in the data set on HeLa [5] above 320 µM.

In the case of `CC(C)C[C@H](NC(=O)OCc1ccccc1)C(=O)N[C@@H](Cc1ccccc1)C(=O)N[C@H](/C=C/C(=O)N1CCOC1=O)CCC(N)=O`, in the data set with HeLa [3], the CC50 is above 100 µM. Besides, in data set [4], the K obs / 1 came to 600000 M⁻¹ s⁻¹. Further, the inhibition entry with Human rhinovirus sp. [7] was “Yes”. For the same compound, a half-maximal effect with HeLa [5] (EC50) was put at 1.6 µM.

Take `CCOC(=O)/C=C/[C@H](CCC(N)=O)NC(=O)[C@H](Cc1ccccc1)NC(=O)[C@H](CC(C)C)NC(=O)OCc1ccccc1`: the concentration giving a half-maximal response (EC50) was 1.6 µM in the data set with HeLa [8], 0.54 µM with HeLa [5] and 2.3 µM in the data set with HeLa [10]. This compound also showed a CC50 with HeLa [3] above 320 µM. The half-life in [9] amounted to 10 min.

`CC(C)C[C@H](NC(=O)OCc1ccccc1)C(=O)N[C@@H](Cc1ccccc1)C(=O)N[C@H](/C=C/C(=O)N1CCN(C)C1=O)CCC(N)=O` gave a CC50 in the data set on HeLa [3] above 320 µM. The K obs / 1 in [4] is 312000 M⁻¹ s⁻¹. Besides, the inhibition result in the data set on Human rhinovirus sp. [7] is “Yes”. Besides, the EC50 in the data set with HeLa [5] came out at 5 µM.

`CC(C)C[C@H](NC(=O)OCc1ccccc1)C(=O)N[C@@H](Cc1ccccc1)C(=O)N[C@H](/C=C/C(=O)N1CCc2cc([N+](=O)[O-])ccc21)CCC(N)=O` gave a CC50 in the data set with HeLa [3] above 320 µM. The same compound displayed a K obs / 1 in data set [4] of 12000 M⁻¹ s⁻¹. Further, the inhibition entry with Human rhinovirus sp. [6] was “inactive”. In the data set with HeLa [5], this compound came in with an EC50 of 17 µM.

In data set [4], `CC(C)C[C@H](NC(=O)OCc1ccccc1)C(=O)N[C@@H](Cc1ccccc1)C(=O)N[C@H](/C=C/C(=O)N1CCc2ccc(S(=O)(=O)N(C)C)cc21)CCC(N)=O` gave a K obs / 1 of 28300 M⁻¹ s⁻¹. Moreover, in the data set with Human rhinovirus sp. [6], the inhibition result was “inactive”. In addition, the EC50 in the data set with HeLa [5] is above 100 µM.

In the data set on HeLa [3], `CC(C)C[C@H](NC(=O)OCc1ccccc1)C(=O)N[C@@H](Cc1ccccc1)C(=O)N[C@H](/C=C/C(=O)c1ccco1)CCC(N)=O` yielded a CC50 of 19 µM. The K obs / 1 in data set [4] stood at 460000 M⁻¹ s⁻¹. In addition, the inhibition result in the data set with Human rhinovirus sp. [7] was “Yes”. In addition, in the data set on HeLa [5], it took 2.4 µM to reach a half-maximal effect (EC50).

On to `CC(=O)N1CC/C(=C\[C@H](CCC(N)=O)NC(=O)[C@H](Cc2ccccc2)NC(=O)[C@H](CC(C)C)NC(=O)OCc2ccccc2)C1=O`, for which the K obs / 1 in data set [1] is 13000 M⁻¹ s⁻¹; in [2], 39000 M⁻¹ s⁻¹; in data set [4] it was 156000 M⁻¹ s⁻¹. In the data set with HeLa [3], this compound showed a CC50 above 100 µM. The EC50 with HeLa [5] came to 0.71 µM.

`CC(C)C[C@H](NC(=O)OCc1ccccc1)C(=O)N[C@@H](Cc1ccccc1)C(=O)N[C@H](/C=C/[N+](=O)[O-])CCC(N)=O` came in with a cytotoxic concentration (CC50) in the data set on HeLa [3] of 100 µM. The same compound showed a K obs / 1 in data set [4] of 500000 M⁻¹ s⁻¹. Moreover, the inhibition result with Human rhinovirus sp. [7] was “Yes”. In addition, the EC50 in the data set on HeLa [5] was above 100 µM.

The compound `CC(C)C[C@H](NC(=O)OCc1ccccc1)C(=O)N[C@@H](Cc1ccccc1)C(=O)N[C@H](/C=C/C(=O)N1CCCC1=O)CCC(N)=O` yielded a CC50 in the data set on HeLa [3] above 320 µM. Besides, the K obs / 1 in data set [4] turned out to be 126000 M⁻¹ s⁻¹. The inhibition result in the data set with Human rhinovirus sp. [7] was “Yes”. This compound also had an EC50 in the data set with HeLa [5] of 0.89 µM.

By CC50 is commonly meant the concentration at which the toxic effect on the cells reaches its halfway point. The low end stands for harm at low concentration, the high end for better tolerance by the cells. By EC50 is commonly meant the midpoint of the concentration-response curve. The low end stands for higher potency in that assay, the high end for lower potency in that assay. What is called half-life is the time needed for the level to fall by half in the phase considered. The low end stands for rapid decline, the high end for slow decline.
